ChEMBL document CHEMBL3885881, “DrugMatrix”

Organism: Rattus norvegicus
Experiment: DrugMatrix - Regimen: Daily Repeat
Assay type: toxicity, organism-based, Sprague-Dawley
Design: regimen Daily Repeat, gender Male, age 6-8 weeks
Conditions: in vivo, po, route oral GAVAGE, […]; for ABSOLUTE BASOPHIL / ABSOLUTE EOSINOPHIL / ABSOLUTE LYMPHOCYTE / ABSOLUTE MONOCYTE / ABSOLUTE SEGMENTED NEUTROPHIL / BASOPHIL / EOSINOPHIL / ERYTHROCYTE COUNT / HEMATOCRIT / HEMOGLOBIN / LEUKOCYTE COUNT / LYMPHOCYTE / MEAN CORPUSCULAR HEMOGLOBIN / MEAN CORPUSCULAR HEMOGLOBIN CONCENTRATION / MEAN CORPUSCULAR VOLUME / MONOCYTE / NEUTROPHIL / NUCLEATED RED BLOOD CELLS / PLATELET COUNT: tissue Blood; for ALANINE AMINOTRANSFERASE / ALBUMIN / ALKALINE PHOSPHATASE / ASPARTATE AMINOTRANSFERASE / BLOOD UREA NITROGEN / CARBON DIOXIDE / CHLORIDE / CHOLESTEROL / CREATINE PHOSPHOKINASE / CREATININE / GLUCOSE / LACTATE DEHYDROGENASE / LIPASE / PHOSPHORUS / POTASSIUM / SODIUM / TOTAL BILIRUBIN / TOTAL PROTEIN / URIC ACID: tissue Plasma
[1] = 100 mg/kg, 120 h, dose level Low, time 5 day
[2] = 1000 mg/kg, 72 h, dose level High, time 3 day
[3] = 1000 mg/kg, 120 h, dose level High, time 5 day

SMILES: CCCC[C@@H](CC)COC(=O)c1ccccc1C(=O)OC[C@@H](CC)CCCC [BIS(2-ETHYLHEXYL)PHTHALATE]
- ABSOLUTE BASOPHIL [1]: 0 CELLS/uL
- ABSOLUTE EOSINOPHIL [1]: 0 CELLS/uL
- ABSOLUTE LYMPHOCYTE [1]: 8094 CELLS/uL
- ABSOLUTE MONOCYTE [1]: 0 CELLS/uL
- ABSOLUTE SEGMENTED NEUTROPHIL [1]: 772.67 CELLS/uL
- BASOPHIL [1]: 0%
- EOSINOPHIL [1]: 0%
- ERYTHROCYTE COUNT [1]: 5.86 x10E6/uL
- HEMATOCRIT [1]: 36.1%
- HEMOGLOBIN [1]: 13.63 G/DL
- LEUKOCYTE COUNT [1]: 8.87 x10E3/uL
- LYMPHOCYTE [1]: 92.33%
- MEAN CORPUSCULAR HEMOGLOBIN [1]: 23.33 pg
- MEAN CORPUSCULAR HEMOGLOBIN CONCENTRATION [1]: 37.8 G/DL
- MEAN CORPUSCULAR VOLUME [1]: 61.67 fL
- MONOCYTE [1]: 0%
- NEUTROPHIL [1]: 7.67%
- NUCLEATED RED BLOOD CELLS [1]: 0 /100WBC
- PLATELET COUNT [1]: 682.33 x10E3/uL
- ALANINE AMINOTRANSFERASE [1]: 80 u/L
- ALBUMIN [1]: 4.27 G/DL
- ALKALINE PHOSPHATASE [1]: 577.33 u/L
- ASPARTATE AMINOTRANSFERASE [1]: 98.33 u/L
- BLOOD UREA NITROGEN [1]: 14.67 mg/dL
- CARBON DIOXIDE [1]: 35.67 mmol/L
- CHLORIDE [1]: 99 MEQ/L
- CHOLESTEROL [1]: 41 mg/dL
- CREATINE PHOSPHOKINASE [1]: 172 u/L
- CREATININE [1]: 0.21 mg/dL
- GLUCOSE [1]: 156.33 mg/dL
- LACTATE DEHYDROGENASE [1]: 135.33 u/L
- LIPASE [1]: 22.33 u/L
- PHOSPHORUS [1]: 10.4 mg/dL
- POTASSIUM [1]: 5.25 MEQ/L
- SODIUM [1]: 144.53 MEQ/L
- TOTAL BILIRUBIN [1]: 0.17 mg/dL
- TOTAL PROTEIN [1]: 5.63 G/DL
- URIC ACID [1]: 0.63 mg/dL
- ABSOLUTE BASOPHIL [2]: 0 CELLS/uL
- ABSOLUTE EOSINOPHIL [2]: 0 CELLS/uL
- ABSOLUTE LYMPHOCYTE [2]: 10510 CELLS/uL
- ABSOLUTE MONOCYTE [2]: 28 CELLS/uL
- ABSOLUTE SEGMENTED NEUTROPHIL [2]: 628.67 CELLS/uL
- BASOPHIL [2]: 0%
- EOSINOPHIL [2]: 0%
- ERYTHROCYTE COUNT [2]: 5.07 x10E6/uL
- HEMATOCRIT [2]: 32.33%
- HEMOGLOBIN [2]: 12.8 G/DL
- LEUKOCYTE COUNT [2]: 11.17 x10E3/uL
- LYMPHOCYTE [2]: 93.67%
- MEAN CORPUSCULAR HEMOGLOBIN [2]: 25.3 pg
- MEAN CORPUSCULAR HEMOGLOBIN CONCENTRATION [2]: 39.57 G/DL
- MEAN CORPUSCULAR VOLUME [2]: 63.8 fL
- MONOCYTE [2]: 0.33%
- NEUTROPHIL [2]: 6%
- NUCLEATED RED BLOOD CELLS [2]: 0 /100WBC
- PLATELET COUNT [2]: 532 x10E3/uL
- ALANINE AMINOTRANSFERASE [2]: 82 u/L
- ALBUMIN [2]: 4.03 G/DL
- ALKALINE PHOSPHATASE [2]: 468.67 u/L
- ASPARTATE AMINOTRANSFERASE [2]: 94 u/L
- BLOOD UREA NITROGEN [2]: 14.67 mg/dL
- CARBON DIOXIDE [2]: 26 mmol/L
- CHLORIDE [2]: 96.33 MEQ/L
- CHOLESTEROL [2]: 44.67 mg/dL
- CREATINE PHOSPHOKINASE [2]: 477.67 u/L
- CREATININE [2]: 0.2 mg/dL
- GLUCOSE [2]: 161.67 mg/dL
- LACTATE DEHYDROGENASE [2]: 137 u/L
- LIPASE [2]: 8.67 u/L
- PHOSPHORUS [2]: 10.3 mg/dL
- POTASSIUM [2]: 4.99 MEQ/L
- SODIUM [2]: 137.1 MEQ/L
- TOTAL BILIRUBIN [2]: 0.0667 mg/dL
- TOTAL PROTEIN [2]: 5.33 G/DL
- URIC ACID [2]: 0.77 mg/dL
- ABSOLUTE BASOPHIL [3]: 0 CELLS/uL
- ABSOLUTE EOSINOPHIL [3]: 0 CELLS/uL
- ABSOLUTE LYMPHOCYTE [3]: 8272 CELLS/uL
- ABSOLUTE MONOCYTE [3]: 65 CELLS/uL
- ABSOLUTE SEGMENTED NEUTROPHIL [3]: 663 CELLS/uL
- BASOPHIL [3]: 0%
- EOSINOPHIL [3]: 0%
- ERYTHROCYTE COUNT [3]: 5.57 x10E6/uL
- HEMATOCRIT [3]: 34.07%
- HEMOGLOBIN [3]: 13.37 G/DL
- LEUKOCYTE COUNT [3]: 9 x10E3/uL
- LYMPHOCYTE [3]: 92%
- MEAN CORPUSCULAR HEMOGLOBIN [3]: 24 pg
- MEAN CORPUSCULAR HEMOGLOBIN CONCENTRATION [3]: 39.23 G/DL
- MEAN CORPUSCULAR VOLUME [3]: 61.2 fL
- MONOCYTE [3]: 0.67%
- NEUTROPHIL [3]: 7.33%
- NUCLEATED RED BLOOD CELLS [3]: 0 /100WBC
- PLATELET COUNT [3]: 1014.67 x10E3/uL
- ALANINE AMINOTRANSFERASE [3]: 84.67 u/L
- ALBUMIN [3]: 4.23 G/DL
- ALKALINE PHOSPHATASE [3]: 412.67 u/L
- ASPARTATE AMINOTRANSFERASE [3]: 99 u/L
- BLOOD UREA NITROGEN [3]: 14.33 mg/dL
- CARBON DIOXIDE [3]: 35.33 mmol/L
- CHLORIDE [3]: 100.33 MEQ/L
- CHOLESTEROL [3]: 53 mg/dL
- CREATINE PHOSPHOKINASE [3]: 324.67 u/L
- CREATININE [3]: 0.12 mg/dL
- GLUCOSE [3]: 168.33 mg/dL
- LACTATE DEHYDROGENASE [3]: 165.33 u/L
- LIPASE [3]: 9.33 u/L
- PHOSPHORUS [3]: 10.6 mg/dL
- POTASSIUM [3]: 5.56 MEQ/L
- SODIUM [3]: 144.83 MEQ/L
- TOTAL BILIRUBIN [3]: 0.13 mg/dL
- TOTAL PROTEIN [3]: 5.77 G/DL
- URIC ACID [3]: 0.7 mg/dL
